Data as given in publication PMC6651170, “New HSV-1 Anti-Viral 1′-Homocarbocyclic Nucleoside Analogs with an Optically Active Substituted Bicyclo[2.2.1]Heptane Fragment as a Glycoside Moiety” (Molecules, 2019).
Where two headings read alike, the source gives them in different places.

Legend:
[1] = tested on: human adenovirus type 5 (AdV5); assay: microbe, parasite or virus in culture; format: cell-based; settings: Human mastadenovirus C, Vero, 72 h, read-out: IC50 Human Adenovirus Type 5
[2] = tested on: Yellow Fever Virus; assay: microbe, parasite or virus in culture; format: cell-based; settings: Yellow fever virus, read-out: IC50 Yellow Fever Virus
[3] = tested on: herpes simplex virus type 1 (HSV-1); assay: microbe, parasite or virus in culture; format: cell-based; settings: Human alphaherpesvirus 1, Vero, 72 h, read-out: IC50 Herpes Simplex Virus Type 1
[4] = in vitro
[5] = in vitro; settings: African green monkey
[6] = tested on: Influenza virus (Flu A, strain A/Puerto Rico/8/34 (H1N1)); assay: microbe, parasite or virus in culture; format: cell-based; settings: unidentified influenza virus, H1N1, MDCK, 48 h, read-out: IC50 Influenza Virus
[7] = tested on: Chikungunya Virus; assay: microbe, parasite or virus in culture; format: cell-based; settings: Chikungunya virus, read-out: IC50 Chikungunya Virus
[8] = in vitro; remark: listed apart in the source
[9] = in vitro; remark: listed apart in the source
[10] = in vitro; settings: dog
[11] = tested on: Enterovirus 71; assay: microbe, parasite or virus in culture; format: cell-based; settings: Enterovirus A, read-out: IC50 Enterovirus 71
[12] = CC50 (Herpes Simplex Virus Type 1)

| Compound | IC50 [1] | IC50 [2] | IC50 [3] | CC50 [4] | CC50 [5, 12] | CC50 ([5]; CC50 (Human Adenovirus Type 5)) | IC50 [6] | IC50 [7] | CC50 [8] | CC50 [9] | CC50 [10] | IC50 [11] |
| --- | --- | --- | --- | --- | --- | --- | --- | --- | --- | --- | --- | --- |
| O=c1[nH]c(=O)n(C[C@H]2[C@@H]3CC(O)[C@H]2C[C@@H]3Cl)cc1F (stereo partly drawn) [Compound 4a, 1-(((1S,2S,4S,7R)-2-Chloro-5-hydroxybicyclo[2.2.1]heptan-7-yl)methyl)-5-fluoropyrimidine-2,4(1H,3H)-dione] | > 1040 µM | > 100 µM | > 1040 µM | > 100 µM | > 1040 µM | > 1040 µM | 173 ± 21 µM | > 100 µM | > 100 µM | > 100 µM | > 1040 µM | > 100 µM |
| Oc1ccc(CCNc2ncnc3c2ncn3C[C@H]2[C@@H]3CC(O)[C@H]2C[C@@H]3Cl)cc1 (stereo partly drawn) [Compound 6i, (1S,4S,5S,7R)-5-Chloro-7-((6-((4-hydroxyphenethyl)amino)-9H-purin-9-yl)methyl)bicyclo[2.2.1]heptan-2-ol] | > 72 µM | > 100 µM | 155 ± 13 µM | > 100 µM | 447 ± 31 µM | 217 ± 17 µM | > 72 µM | > 100 µM | > 100 µM | > 100 µM | 124 ± 9 µM | 79 µM |
| OC1C[C@H]2[C@H](Cn3cnc4c(NCCc5ccccc5)ncnc43)[C@@H]1C[C@@H]2Cl (stereo partly drawn) [Compound 6k, (1S,4S,5S,7R)-5-Chloro-7-((6-(phenethylamino)-9H-purin-9-yl)methyl)bicyclo[2.2.1]heptan-2-ol] | > 75 µM | > 100 µM | 48 ± 6 µM | > 100 µM | 185 ± 16 µM | 245 ± 18 µM | 74 ± 8 µM | > 100 µM | > 100 µM | > 100 µM | 254 ± 21 µM | 25 ± 5.6 µM |
| COc1ncnc2c1ncn2C[C@H]1[C@@H]2CC(O)[C@H]1C[C@@H]2Cl (stereo partly drawn) [Compound 7a, (1S,4S,5S,7R)-5-Chloro-7-((6-methoxy-9H-purin-9-yl)methyl)bicyclo[2.2.1]heptan-2-ol] | > 972 µM | > 100 µM | > 972 µM | > 100 µM | > 972 µM | > 972 µM | 233 ± 33 µM | > 100 µM | > 100 µM | > 100 µM | > 972 µM | > 100 µM |
| O=c1ccn(C[C@@H]2[C@@H]3C[C@H](Cl)[C@H]2C[C@H]3O)c(=O)[nH]1 [Compound 4b, 1-(((1S,2S,4S,5R,7R)-2-Chloro-5-hydroxybicyclo[2.2.1]heptan-7-yl)methyl)pyrimidine-2,4(1H,3H)-dione] | > 1110 µM | > 100 µM | 705 ± 81 µM | > 100 µM | 1110 µM | > 1110 µM | 369 ± 26 µM | > 100 µM | > 100 µM | > 100 µM | > 1110 µM | > 100 µM |
| OC1C[C@H]2[C@H](Cn3cnc4c(N5CCOCC5)ncnc43)[C@@H]1C[C@@H]2Cl (stereo partly drawn) [Compound 6h, (1S,4S,5S,7R)-5-Chloro-7-((6-morpholino-9H-purin-9-yl)methyl)bicyclo[2.2.1]heptan-2-ol] | > 600 µM | > 100 µM | 341 ± 40 µM | > 100 µM | > 600 µM | > 600 µM | 196 ± 15 µM | > 100 µM | > 100 µM | > 100 µM | > 600 µM | > 100 µM |
| Nc1nc2c(ncn2COCCO)c(=O)[nH]1 [Acyclovir, reference compound] | – | – | 28 ± 4 µM | – | > 1130 µM | – | – | – | – | – | – | – |
| CCOC(=O)C1=C[C@@H](OC(CC)CC)[C@H](NC(C)=O)[C@@H](N)C1 [Oseltamivir, reference compound] | – | – | – | – | – | – | 0.3 ± 0.1 µM | – | – | – | > 100 µM | – |
